The source of these data is patent US6132944A, “Photographic element containing high dye-yield couplers” (Eastman Kodak Company, priority 1999, dated 2000).

As a reminder, the pKa is the negative logarithm of the acid dissociation constant. A higher pKa goes with a weaker acid or stronger base.

Data set [1] can be described thus: pKa by spectrophotometric titration in aqueous Triton X-100. To be noted: for pKa: Table I; for pK1: first ionization, sulfonamide in conjugation with naphthalene; for pK2: second sulfonamide (in conjugation with the phenyl ring); for pKa (Sol. group): Table II. The data set is classed as physicochemical. As for the experimental part:
In the following examples, the pKa values were determined by standard procedures using spectrophotometric titration of the compounds of interest. The spectrophotometric technique involves measuring the absorption spectra of the compound of interest in a range of buffer solutions. The absorption data (optical densities, ODobsd) can then be used to determine the corresponding pKa value(s) according to eq 1-3
ODobsd=ODHnA +ODHn-1A + (1)
=b[HnA]εHnA +b[Hn-1A]εHn-1A (2)
=b[total]fHnA εHnA +b[total]fHn-1A
Typically, the experimental constants (b and [total]) are combined with the extinction coefficient (ε) and expressed as the maximum optical density (ODmax) for a given species. Eq 3 then becomes,
=ODmaxHnA fHnA +ODmaxHn-1A fHn-1A (4)
The fraction of a given species (f) is a function of the pH and pKa values.
For example, for a system with one titratable proton eq 5-6,
Thus, the pKa and ODmax values can be determined from a set of XY pair data (pH, ODobsd) using a non linear least squares fit.
This technique relies on a difference in extinction coefficient between the species of interest at a given wavelength. This can be seen by inspection as a change in the absorption spectrum over a given pH range. In addition to this macroscopic data, (the experimental pKa values), the spectrophotometric technique can also provide microscopic information, i.e., information about the relationship between the individual titratable groups and the pKa values. In this manner, a pKa value may be attributed to titration of a particular group in a molecule, e.g., a solubilizing group.
The absorption spectra over a range of pH values and pKa values for the model sulfonamides such as Comp-11 and Comp-8 (defined for the examples hereinafter) as well as the coupler Comp-12 may be plotted. In model sulfonamide Comp-11 (pK 6.65), the optical density change resulting from ionization of the sulfonamide which is in conjugation with the naphthalene group may be pinpointed. Model sulfonamide Comp-8 comprises the entire solubilizing group pK1 7.03, pK2 10.00). […] Finally, in the spectrophotometric titration of the coupler Comp-12, the ionization of both sulfonamides in the solubilizing group as well as ionization of the coupling site pK1 6.85, pK2 9.85, pK3 10.84) can be seen.
In practice, a stock solution of the appropriate compound (1×10^-4 M) and Triton X-100 (1.2%) in water was prepared. The Triton X-100 (CAS Registry No. [9002-93-1], polyoxyethylene(10) isooctylcyclohexyl ether) was obtained from Aldrich Chemical Co. and used as received.
To 1.50 mL of the appropriate phosphate buffer (μ=0.75) were added 1.50 mL of the stock solution. The solution was agitated to ensure adequate mixing, and its absorption spectrum and pH were measured. A non linear least squares method was then used to fit the data to a one, two, or three pKa value model as appropriate.

For data set [2] the following is noted: Table II, cited from earlier work.
Where [3] appears, read: sol group, aqueous Triton X-100.

Molecules are shown by their SMILES. Read-outs that look alike come from different tables or passages of the source.

Regarding `CCCN(C(=O)OC(C(=O)Nc1ccccc1OC)C(=O)c1cccc(NS(=O)(=O)c2ccc(C)cc2)c1)c1ccc(C=C(C#N)c2nc3c(C)cc(C)cc3s2)c(C)c1` (stereo not drawn) [Comp-4], in data set [1] (inferred from Comp-5 and Comp-6), the pKa came out at 8.8.

For the molecule `COc1ccc(C(=O)C(OC(=O)N(c2ccc(C=C(C#N)c3nc4cc(C(C)(C)CC(C)(C)C)ccc4o3)c(C)c2)C2CCCC2)C(=O)Nc2cc(NS(=O)(=O)c3ccc(O)cc3)ccc2Cl)cc1` (stereo not drawn) [Inv-3], the pKa in data set [1] (setting [3]) was 8.7.

Regarding `CS(=O)(=O)Nc1ccc(S(=O)(=O)Nc2ccc(Cl)cc2)c2ccccc12` [Comp-8], in data set [1], the pK1 amounted to 7.03 and the pK2 is listed as 10.00.

With `CC(=O)Nc1cc(NS(=O)(=O)c2ccc(O)cc2)ccc1Cl` [Comp-20], the “pKa (Sol. group)” value in data set [1] (aqueous Triton X-100) worked out at 8.1.

In data set [1] (setting [3]), `Cc1cc(N(C(=O)OC(C(=O)Nc2cc(NS(=O)(=O)c3ccc(NS(C)(=O)=O)cc3O)ccc2Cl)C(=O)C(C)(C)C)C2CCCC2)ccc1C=C(C#N)c1nc2cc(C(C)(C)CC(C)(C)C)ccc2o1` (stereo not drawn) [Inv-6] displayed a pKa of 7.4.

With `CS(=O)(=O)c1ccc(O)cc1` [Comp-7], the “pKa (Sol. group)” value in data set [2] (in water (Bordwell and Cooper)) was 7.8.

The molecule `Cc1cc(N(C(=O)OC(C(=O)Nc2cc(NS(=O)(=O)c3cccc(NS(C)(=O)=O)c3)ccc2Cl)C(=O)C(C)(C)C)C2CCCC2)ccc1C=C(C#N)c1nc2cc(C(C)(C)CC(C)(C)C)ccc2o1` (stereo not drawn) [Inv-9] displayed a pKa in data set [1] (setting [3]) of 7.9.

Molecule `CCCCCCCCCCCCCCCCNS(=O)(=O)c1ccc(Cl)c(NC(=O)C(OC(=O)N(CCCCCCCCCCCC)c2ccc(C=C(C#N)c3nc4ccccc4o3)c(C)c2)C(=O)c2ccc(OC)cc2)c1` (stereo not drawn) [Comp-3] registered a pKa in data set [1] (setting [3]) of 13.

In data set [1] (setting [3]), `Cc1cc(N(C(=O)OC(C(=O)Nc2cc(NS(=O)(=O)c3ccc(O)c(NS(C)(=O)=O)c3)ccc2Cl)C(=O)C(C)(C)C)C2CCCC2)ccc1C=C(C#N)c1nc2cc(C(C)(C)CC(C)(C)C)ccc2o1` (stereo not drawn) [Inv-1] returned a pKa of 7.2.

In data set [1] (setting [3]), `COc1ccc(C(=O)C(OC(=O)N(c2ccc(C=C(C#N)c3nc4cc(C(C)(C)CC(C)(C)C)ccc4o3)c(C)c2)C2CCCC2)C(=O)Nc2cc(NS(=O)(=O)c3ccccc3NS(C)(=O)=O)ccc2Cl)cc1` (stereo not drawn) [Inv-10] returned a pKa of 6.1.

Consider `CC(=O)c1cccc(NS(=O)(=O)c2ccc(C)cc2)c1` [Comp-9], for which the “pKa (Sol. group)” value in data set [1] (aqueous Triton X-100) came to 8.7.

In data set [1] (setting [3]), `CCCCCCCCCCCCCCCCS(=O)(=O)Nc1ccc(Cl)c(NC(=O)C(OC(=O)N(CC)c2ccc(N=Nc3ccc(C(=O)OCCCCCCCCCCCC)cc3)cc2)C(=O)C(C)(C)C)c1` (stereo not drawn) [Comp-1] yielded a pKa of 9.5.

In the case of `CC(C)(C)C(=O)CC(=O)Nc1cc(NS(=O)(=O)c2ccc(NS(C)(=O)=O)c3ccccc23)ccc1Cl` [Comp-12], the “pKa (Sol. group)” value in data set [1] (aqueous Triton X-100) is 6.8. Besides, in data set [1], the pK1 is 6.85 and the pK2 was determined as 9.85. The pK3 in data set [1] (third ionization) was 10.84.

As for `CN(C)S(=O)(=O)c1ccc(NS(C)(=O)=O)c2ccccc12` [Comp-11], in data set [1] (aqueous Triton X-100), the “pKa (Sol. group)” value is 6.6. The molecule also came in with a pK in data set [1] (sulfonamide in conjugation with the naphthalene group) of 6.65.

Regarding `COc1ccccc1NC(=O)CC(=O)c1cccc(NS(=O)(=O)c2ccc(C)cc2)c1` [Comp-10], in data set [1] (Example 2), the “pKa at the coupling site” value is 10.3. In data set [1] (aqueous Triton X-100), the “pKa (Sol. group)” value is listed as 8.8.

For the molecule `CCN(C(=O)OC(C(=O)Nc1cc(NS(=O)(=O)c2c(NS(C)(=O)=O)ccc3ccccc23)ccc1Cl)C(=O)c1ccc(OC)cc1)c1ccc(C=C(C#N)c2nc3cc(C(C)(C)CC(C)(C)C)ccc3o2)c(C)c1` (stereo not drawn) [Inv-4], the pKa in data set [1] (setting [3]) came out at 6.5.

As to `CCCCCCCCCCCCCCCCS(=O)(=O)Nc1ccc(Cl)c(NC(=O)CC(=O)C(C)(C)C)c1` [Comp-16], the “pKa (Sol. group)” value in data set [1] (aqueous Triton X-100) was 9.4.

As for `CCCCCCCCCCCCCCCCS(=O)(=O)Nc1ccc(Cl)c(NC(C)=O)c1` [Comp-17], in data set [1] (aqueous Triton X-100), the “pKa (Sol. group)” value was found to be 9.5.

Consider `CCCCN(C(=O)OC(C(=O)Nc1ccccc1OC)C(=O)c1cccc(NS(=O)(=O)c2ccc(C)cc2)c1)c1ccc(C=C(C#N)c2nc3cc(C(C)(C)CC(C)(C)C)ccc3o2)c(C)c1` (stereo not drawn) [Comp-6], for which the pKa in data set [1] (setting [3]) turned out to be 8.9.

For `CCCCCCCCCCCCCCCCNS(=O)(=O)c1ccc(Cl)c(NC(=O)C(OC(=O)N(CCCC)c2ccc(C=C(C#N)c3nc4ccccc4o3)c(C)c2)C(=O)c2ccc(OC)cc2)c1` (stereo not drawn) [Comp-2], in data set [1] (setting [3]), the pKa is 13.

For the molecule `Cc1cc(N(C(=O)OC(C(=O)Nc2cc(NS(=O)(=O)c3ccc(O)cc3)ccc2Cl)C(=O)C(C)(C)C)C2CCCC2)ccc1C=C(C#N)c1nc2cc(C(C)(C)CC(C)(C)C)ccc2o1` (stereo not drawn) [Comp-21], the pKa in data set [1] (setting [3]) came out at 8.8.

Turning to `CCN(C(=O)OC(C(=O)Nc1cc(NS(=O)(=O)c2ccc(NS(C)(=O)=O)cc2)ccc1Cl)C(=O)c1ccc(OC)cc1)c1ccc(C=C(C#N)c2nc3cc(C(C)(C)CC(C)(C)C)ccc3o2)c(C)c1` (stereo not drawn) [Inv-7], the pKa in data set [1] (setting [3]) was found to be 7.9.

`CCN(C(=O)OC(C(=O)Nc1cc(NS(=O)(=O)c2ccccc2NS(C)(=O)=O)ccc1Cl)C(=O)c1ccc(OC)cc1)c1ccc(C=C(C#N)c2nc3cc(C(C)(C)CC(C)(C)C)ccc3o2)c(C)c1` (stereo not drawn) [Inv-8] gave a pKa in data set [1] (setting [3]) of 6.1.

`CCCCCCCCCCCCCCCCNS(=O)(=O)c1ccccc1` [Comp-19]: the “pKa (Sol. group)” value in data set [1] (aqueous Triton X-100) is 13.0.

With `CCN(C(=O)OC(C(=O)Nc1cc(NS(=O)(=O)c2ccc(NS(C)(=O)=O)c3ccccc23)ccc1Cl)C(=O)c1ccc(OC)cc1)c1ccc(C=C(C#N)c2nc3cc(C(C)(C)CC(C)(C)C)ccc3o2)c(C)c1` (stereo not drawn) [Inv-5], the pKa in data set [1] (setting [3]) is 6.7.

Turning to `CCCCCCCN(C(=O)OC(C(=O)Nc1ccccc1OC)C(=O)c1cccc(NS(=O)(=O)c2ccc(C)cc2)c1)c1ccc(C=C(C#N)c2nc3ccc(C)cc3o2)c(C)c1` (stereo not drawn) [Comp-5], the pKa in data set [1] (setting [3]) is 8.8.

On to `CNS(=O)(=O)c1ccccc1` [Comp-18], for which the “pKa (Sol. group)” value in data set [2] (in water (King)) is listed as 11.43.
